Experimental data published in patent US20250127907A1, “PARP INHIBITORS” (Stablix, Inc., priority 2023, published 2025).
Read-outs that look alike come from different tables or passages of the source.

How the values were obtained:
A2780 cells = assay: Cell proliferation assay (A2780); format: cell-based; details: 7 days
Method: (§1) Cells are counted, diluted to desired density and 40 μL of cell suspension is added into each 384-well tissue-culture treated plates. Plates are incubated in Tissue Culture incubator at 37° C./5% C02 overnight.
(§2) Next day, 40 nl test compounds that are prepared from source plates are transferred to the seeded cells from overnight. Plates are incubated at 37° C./5% C02 for a total of 7 days. After 7-day incubation, plates are equilibrated to room temperature and 30 ul of Cell Counting-Lite is added to each well for a 30 min incubation followed by reading on EnVision.
(§3) The letter codes for the cell proliferation assay in A2780, HCC1806, and MDA-MB-436 cells include: A (<10 nM), B (>10-100 nM), C (>100-1000 nM), D (>1000-10000 nM), E (>10000 nM), and “-” is not tested.

PARP1 [1] = target: T1, PARP1 (Homo sapiens, UniProt P09874); assay: PARP trapping assay in U2OS cells; format: cell-based; parameters: endogenous in cells; host or cells: U2OS
Method: U2OS cells are seeded at 15,000 cells/well in 90 ul medium and incubated in the TC incubator for overnight.
Next day, test compounds are prepared in a source plate along with addition of DNA damage reagent MMS simultaneously and 10 ul of the diluted mixture is added to the cell plate and incubated for 4 hrs under T/C conditions.
After 4 hrs, following aspiration and washing, add 100 ul of cold cytoskeleton removal buffer (0.5% Triton X-100) and incubated for 10 min. At the end of incubation, slowly the buffer is removed, and cells are fixed with ice cold MeOH for 15 min at −20C. Followed by wash steps, cells are blocked with 1×PBS/3% BSA/0.05% Tween for 1 h at room temperature.
Cells are stained with anti PARP1 antibody (abeam ab227244, 1:1000), in 1×PBS/1% BSA overnight at 4C.
Wash and add DAPI, scan cells in Celigo.
Data Analysis: DAPI staining is used to segment nuclei and AF488 fluorescence intensity per nucleus is measured.
(§4) The letter codes for the PARP1-enzyme assay include: A (<1 nM), B (>1-10 nM), C (>10-100 nM), D (>100-1000 nM), E (>1000 nM), and “-” is not tested. The letter codes for the PARP trapping assay, and parylation assay include: A (<10 nM), B (>10-100 nM), C (>100-1000 nM), […], E (>10000 nM), and “-” is not tested.
Target sequence in this assay (P09874 whole entry): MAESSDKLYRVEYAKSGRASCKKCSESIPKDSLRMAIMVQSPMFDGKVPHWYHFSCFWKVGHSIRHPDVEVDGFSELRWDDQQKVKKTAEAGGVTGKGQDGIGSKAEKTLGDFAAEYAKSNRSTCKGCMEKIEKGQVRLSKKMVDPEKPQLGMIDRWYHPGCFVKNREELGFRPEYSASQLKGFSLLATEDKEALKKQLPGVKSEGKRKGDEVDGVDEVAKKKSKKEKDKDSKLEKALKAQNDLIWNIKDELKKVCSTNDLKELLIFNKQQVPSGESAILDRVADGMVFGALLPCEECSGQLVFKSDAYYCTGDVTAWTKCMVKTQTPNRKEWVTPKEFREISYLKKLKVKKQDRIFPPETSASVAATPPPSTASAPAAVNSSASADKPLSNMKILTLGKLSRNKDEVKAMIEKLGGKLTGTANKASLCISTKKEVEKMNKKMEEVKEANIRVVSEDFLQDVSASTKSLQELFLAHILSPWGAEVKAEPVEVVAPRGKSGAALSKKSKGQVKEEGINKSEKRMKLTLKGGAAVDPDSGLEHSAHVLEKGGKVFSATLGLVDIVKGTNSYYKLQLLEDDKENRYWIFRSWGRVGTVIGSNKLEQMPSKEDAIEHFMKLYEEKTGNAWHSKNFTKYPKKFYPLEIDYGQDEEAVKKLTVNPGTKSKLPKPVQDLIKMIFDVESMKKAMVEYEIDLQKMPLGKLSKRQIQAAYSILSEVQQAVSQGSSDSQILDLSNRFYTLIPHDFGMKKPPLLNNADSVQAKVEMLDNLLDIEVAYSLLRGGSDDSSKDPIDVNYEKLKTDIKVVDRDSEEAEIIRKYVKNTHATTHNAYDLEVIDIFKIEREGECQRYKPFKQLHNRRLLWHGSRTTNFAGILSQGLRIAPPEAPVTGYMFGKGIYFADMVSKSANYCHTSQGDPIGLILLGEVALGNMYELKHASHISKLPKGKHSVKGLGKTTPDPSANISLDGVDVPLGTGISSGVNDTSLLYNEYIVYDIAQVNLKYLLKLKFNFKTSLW

[2] = test system: Poly/Mono-ADP Ribose in U2OS cells; assay: PAR in cell western assay (parylation) in U2OS cells; format: cell-based; details: read-out: Parylation (U2OS)
Method: U2OS cells are seeded at 2667 cells per well in 24 ul medium into poly-D lysine-coated 384 well plate and incubated in the TC incubator for O/N
The next day, test comps are diluted in a source plate and 6 μL of the diluted comp is added to the cell plate; mixed well and incubated for 6 hrs. DNA damage is induced with 2 mM H2O2 for 10 min. After discarding the medium, cells are fixed in ice cold Methanol at for 20 min at −20C. After a wash step at room temperature, cells are permeabilized with 0.05% NP-40 in PBS for 10 min, followed by wash steps. Cells are blocked with 1% BSA, at room temperature for 1 hr. Cells are stained with anti mono/polyADP ribose antibody (E6F6A, Cell signaling, 1:5000) in 1×PBS/1% BSA/0.05% Tween o/n at 4C.
Next Day, cells are washed and incubated with anti-Rabbit 800CV (Licor antibody, 1:500) and CellTag 700 (Licor, 1:800) in 1×PBS/1% BSA/0.05% Tween for 1 h. After washing, plates are scanned using LICOR and are quantified.
Parylation inhibition is reported as % control inhibition.
as §4

PARP1 [3] = target: T1, PARP1; assay: PARP1-enzyme assay (NAD/NADH-Glo biochemical assay); details: recombinant PARP1, NAD+ consumption
Method: The PARP enzyme catalyzes the transfer of ADP-Ribose from NAD+ onto PAR chains/histone substrates. The catalytic cycle is monitored indirectly with the NAD/NADH-Glo Assay kit from Promega. […] NAD+ consumed is determined by comparison to the no enzyme control.
• Recombinant PARP1 • NAD+/NAHD-Glow assay Kit • Activated DNA, 10 μg/mL • NAD+(Nicotinamide Adenine Dinucleotide), 500 nM • Protein substrate for PARP1: Core Histone from chicken, 10 μg/mL
as §4
Target sequence in this assay (P09874 whole entry, species assumed): as the sequence (P09874 whole entry) above

MDA-MB-436 cells = assay: Cell proliferation assay (MDA-MB-436); format: cell-based; details: 7 days
Method: as §1, §2, §3

[4] = U2OS cells, MMS, 4 hrs, read-out: PARP Trapping (U2OS)
[5] = Homo sapiens, U2OS cells, 6 hrs, 2 mM H2O2

Compound | IC50 (A2780 cells; Homo sapiens, 168 h) [nM] | IC50 (PARP1 [1]; [4]) [nM] | IC50 [2, 5] [nM] | IC50 (PARP1 [3]) [nM] | IC50 (MDA-MB-436 cells; Homo sapiens, 168 h) [nM] | IC50 (A2780 cells) [nM] | IC50 ([2]; U2OS cells, 6 hrs, 2 mM H2O2) [nM] | IC50 (MDA-MB-436 cells) [nM] | IC50 (PARP1 [1]) [nM] | IC50 ([2]; Homo sapiens, U2OS, 6 h) [nM]
CCc1cccc(-c2cnc(C(=O)N3CCN(CC4CCN(CC(=O)N5CCN(C(=O)c6cc(Cc7n[nH]c(=O)c8ccccc78)ccc6F)CC5)CC4)CC3)c(NC(=O)CNCc3ccncn3)c2)c1 [Compound I-238] | 1000 to 10000 | 100 to 1000 | 100 to 1000 | < 1 | 10 to 100 |  |  |  |  | 
O=C(N[C@@H](C(=O)N1CCN(CC2CCN(CC(=O)N3CCN(C(=O)c4cc(Cc5n[nH]c(=O)c6ccccc56)ccc4F)CC3)CC2)CC1)C1CCCCC1)c1cccc([C@H]2CCCN(C(=O)CNCc3ccc(F)cc3F)C2)c1 [Compound I-294] | 100 to 1000 | 100 to 1000 | 10 to 100 | 1 to 10 | 10 to 100 |  |  |  |  | 
O=C(N[C@@H](C(=O)N1CCN(CC2CCN(CC(=O)N3CCN(C(=O)c4cc(Cc5n[nH]c(=O)c6ccccc56)ccc4F)CC3)CC2)CC1)C1CCCCC1)c1cc(C2CCCN(C(=O)CNC3CC3)C2)ccc1F (stereo partly drawn) [Compound I-323] | 100 to 1000 |  |  | < 1 | < 10 |  |  |  | 100 to 1000 | 100 to 1000
CCc1cccc(-c2cnc(C(=O)N3CCC(CN4CCN(CC(=O)N5CCN(C(=O)c6cc(Cc7n[nH]c(=O)c8ccccc78)ccc6F)CC5)CC4)CC3)c(NC(=O)CNCc3ccc(F)cc3F)c2)c1 [Compound I-331] | 10 to 100 | 100 to 1000 | 10 to 100 | < 1 | 10 to 100 |  |  |  |  | 

More lines, main results first:

IC50 (A2780 cells; Homo sapiens, 168 h) [nM] | IC50 (PARP1 [1]; [4]) [nM] | IC50 [2, 5] [nM] | IC50 (PARP1 [3]) [nM] | IC50 (MDA-MB-436 cells; Homo sapiens, 168 h) [nM] | IC50 (A2780 cells) [nM] | IC50 ([2]; U2OS cells, 6 hrs, 2 mM H2O2) [nM] | IC50 (MDA-MB-436 cells) [nM] | Compound | IC50 (PARP1 [1]) [nM] | IC50 ([2]; Homo sapiens, U2OS, 6 h) [nM]
100 to 1000 | 10 to 100 | 100 to 1000 | < 1 | 10 to 100 |  |  |  | CCc1cccc(-c2cnc(C(=O)N3CCC(CN4CCN(CC(=O)N5CCN(C(=O)c6cc(Cc7n[nH]c(=O)c8ccccc78)ccc6F)CC5)CC4)CC3)c(NC(=O)CNCc3cccc(C)c3)c2)c1 [Compound I-61] |  | 
100 to 1000 | 100 to 1000 | 100 to 1000 | < 1 | 10 to 100 |  |  |  | CCc1cccc(-c2cnc(C(=O)NCCCCCNCC(=O)N3CCN(C(=O)c4cc(Cc5n[nH]c(=O)c6ccccc56)ccc4F)CC3)c(NC(=O)CNCc3cccc(C)c3)c2)c1 [Compound I-64] |  | 
 | 10 to 100 |  | < 1 |  | 10 to 100 | 100 to 1000 | < 10 | CCOc1cc(OC)ccc1CNCC(=O)N1CCC[C@H](c2cccc(C(=O)N[C@@H](C(=O)N3CCC(CN4CCN(CC(=O)N5CCN(C(=O)c6cc(Cc7n[nH]c(=O)c8ccccc78)ccc6F)CC5)CC4)CC3)C3CCCCC3)c2)C1 [Compound I-168] |  | 
100 to 1000 | 100 to 1000 | 100 to 1000 | < 1 | 10 to 100 |  |  |  | O=C(N[C@@H](C(=O)N1CCN(CC2CCN(CC(=O)N3CCN(C(=O)c4cc(Cc5n[nH]c(=O)c6ccccc56)ccc4F)CC3)CC2)CC1)C1CCCCC1)c1cccc(C2CCCN(C(=O)CNC3CC3)C2)c1 (stereo partly drawn) [Compound I-183] |  | 
100 to 1000 | 100 to 1000 | 100 to 1000 | < 1 | 10 to 100 |  |  |  | O=C(N[C@@H](C(=O)N1CCN(CC2CCN(CC(=O)N3CCN(C(=O)c4cc(Cc5n[nH]c(=O)c6ccccc56)ccc4F)CC3)CC2)CC1)C1CCCCC1)c1cccc(C2CCCN(C(=O)CNCc3ccc(F)cc3F)C2)c1 (stereo partly drawn) [Compound I-184] |  | 
